These results are taken from US20240327408A1, “COMPOUNDS CONTAINING TETRAHYDRONAPHTHYRIDINONE OR TETRAHYDROPYRIDOPYRIMIDINONE SKELETON, PREPARATION METHOD THEREFOR AND PHARMACEUTICAL USE THEREOF” (CHINA PHARMACEUTICAL UNIVERSITY, priority 2021, published 2024).

Assay [1] deals with MV4; 11 cells. The assay is described as follows: inhibiting the growth of MV4; 11 cells. Type of assay: cell-based. The following applies: Homo sapiens.
Assay [2] deals with T1, hClpP (Homo sapiens, UniProt Q16740).
T1 construct: made in house
T1 sequence (Q16740 57-277): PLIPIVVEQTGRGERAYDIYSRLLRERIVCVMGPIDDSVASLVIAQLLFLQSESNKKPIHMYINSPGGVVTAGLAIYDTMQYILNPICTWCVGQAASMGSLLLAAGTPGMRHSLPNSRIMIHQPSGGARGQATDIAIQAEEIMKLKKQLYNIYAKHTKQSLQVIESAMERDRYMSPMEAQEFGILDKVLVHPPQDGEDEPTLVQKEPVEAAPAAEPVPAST
The assay is described as follows: activating ClpP hydrolysis of FITC-casein (fluorescence kinetic detection). The assay is classed as biochemical. Particulars: hClpP 1 μM, FITC-Casein 4 μM, 37° C. Summed up:
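hClpP at 1 μM final preincubated with compounds (assay-buffer dilutions 200 μM–2 nM, before mixing) 30 min at 37 °C, then 4 μM final FITC-casein added. Fluorescence read kinetically at 37 °C every 1 min for 15 min, duplicate wells.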

pEC50, pIC50: −log10 of the molar value. Some results are limits rather than exact numbers.

On to `N#Cc1cccc(CN2CCc3c(c(=O)n(Cc4ccc([N+](=O)[O-])cc4)c4ncccc34)C2)c1` [Compound I-88, 6-(4-nitrobenzyl)-3-(3-cyanobenzyl)-2,3,4,6-tetrahydropyrido[3,4-c][1,8]naphthyridine-5-(1H)-one], for which the pIC50 (commonly the IC50 on a negative log10 scale, so that one unit is a factor of ten) in assay [1] was 5.00 to 6.00. Besides, the pEC50 (commonly the negative decadic logarithm of the EC50, by convention in mol/L) in assay [2] was 5.00 to 6.00.
`CNc1ccc(Cn2c(=O)c3c(c4cccnc42)CCN(Cc2cccc(C#N)c2)C3)cc1` [Compound I-89, 6-(4-methylaminobenzyl)-3-(3-cyanobenzyl)-2,3,4,6-tetrahydropyrido[3,4-c][1,8]naphthyridine-5-(1H)-one] showed a pIC50 in assay [1] of 5.00 to 6.00. Moreover, the pEC50 in assay [2] is 5.00 to 6.00.
Compound `CN(C)c1ccc(Cn2c(=O)c3c(c4cccnc42)CCN(Cc2cccc(C#N)c2)C3)cc1` [Compound I-90, 6-(4-dimethylaminobenzyl)-3-(3-cyanobenzyl)-2,3,4,6-tetrahydropyrido[3,4-c][1,8]naphthyridine-5-(1H)-one] showed a pIC50 in assay [1] of 5.00 to 6.00. Besides, the pEC50 in assay [2] is 5.00 to 6.00.
Regarding `Cc1ccc(Cn2c(=O)c3c(c4cccnc42)CCN(Cc2cccc(C#N)c2)C3)cc1` [Compound I-91, 6-(4-methylbenzyl)-3-(3-cyanobenzyl)-2,3,4,6-tetrahydropyrido[3,4-c][1,8]naphthyridine-5-(1H)-one], the pIC50 in assay [1] was over 6.00. In assay [2], this compound gave a pEC50 of over 6.00.
With `Cc1ccc(Cn2c(=O)c3c(c4cccnc42)CCN(Cc2cccc(Cl)c2)C3)cc1` [Compound I-92, 6-(4-methylbenzyl)-3-(3-chlorobenzyl)-2,3,4,6-tetrahydropyrido[3,4-c][1,8]naphthyridine-5-(1H)-one], the pIC50 in assay [1] was over 6.00. This compound also gave a pEC50 in assay [2] of over 6.00.
The compound `Cc1ccc(Cn2c(=O)c3c(c4cccnc42)CCN(Cc2cccc(F)c2)C3)cc1` [Compound I-93, 6-(4-methylbenzyl)-3-(3-fluorobenzyl)-2,3,4,6-tetrahydropyrido[3,4-c][1,8]naphthyridine-5-(1H)-one] showed a pIC50 in assay [1] of over 6.00. The compound further showed a pEC50 in assay [2] of over 6.00.
The compound `CCc1ccc(Cn2c(=O)c3c(c4cccnc42)CCN(Cc2cccc(C#N)c2)C3)cc1` [Compound I-94, 6-(4-ethylbenzyl)-3-(3-cyanobenzyl)-2,3,4,6-tetrahydropyrido[3,4-c][1,8]naphthyridine-5-(1H)-one] had a pIC50 in assay [1] of over 6.00. In assay [2], this compound had a pEC50 of over 6.00.
On to `CCc1ccc(Cn2c(=O)c3c(c4cccnc42)CCN(Cc2cccc(F)c2)C3)cc1` [Compound I-95, 6-(4-ethylbenzyl)-3-(3-fluorobenzyl)-2,3,4,6-tetrahydropyrido[3,4-c][1,8]naphthyridine-5-(1H)-one], for which the pIC50 in assay [1] was over 6.00. Further, in assay [2], the pEC50 was over 6.00.
In assay [1], `CCc1ccc(Cn2c(=O)c3c(c4cccnc42)CCN(Cc2cccc(Cl)c2)C3)cc1` [Compound I-96, 6-(4-ethylbenzyl)-3-(3-chlorobenzyl)-2,3,4,6-tetrahydropyrido[3,4-c][1,8]naphthyridine-5-(1H)-one] had a pIC50 of over 6.00. Moreover, the negative logarithm of the EC50 (pEC50) in assay [2] is over 6.00.
In assay [1], `O=c1c2c(c3cccnc3n1Cc1ccc3c(c1)OCCO3)CCN(Cc1cccc(Cl)c1)C2` [Compound I-97, 3-(3-chlorobenzyl)-6-((2,3-dihydro[1,4]benzodioxin-6-yl)methyl)-2,3,4,6-tetrahydropyrido[3,4-c][1,8]naphthyridine-5(1H)-one] showed a pIC50 of 5.00 to 6.00. Moreover, the pEC50 in assay [2] is 5.00 to 6.00.
`N#Cc1cccc(CN2CCc3c(c(=O)n(Cc4ccc5c(c4)OCO5)c4ncccc34)C2)c1` [Compound I-98, 6-([1,3]benzodioxol-5-ylmethyl)-3-(3-cyanobenzyl)-2,3,4,6-tetrahydropyrido[3,4-c][1,8]naphthyridine-5-(1H)-one] showed a pIC50 in assay [1] of 5.00 to 6.00. Also, in assay [2], the pEC50 was 5.00 to 6.00.
In turn, `COc1ccc(Cn2c(=O)c3c(c4cccnc42)CCN(Cc2cccc(F)c2)C3)cc1` [Compound I-99, 6-(4-methoxybenzyl)-3-(3-fluorobenzyl)-2,3,4,6-tetrahydropyrido[3,4-c][1,8]naphthyridine-5-(1H)-one] showed a pIC50 in assay [1] of over 6.00. This compound also had a pEC50 in assay [2] of over 6.00.
